{"source": "patent US9284284B2", "about": "“Oxazine derivatives and their use in the treatment of disease” (NOVARTIS AG, priority 2011, dated 2016)", "key": {"human BACE-1": {"biological_target": "human BACE-1 (Homo sapiens (Human), UniProt P56817)", "sequence (P56817 46-457)": "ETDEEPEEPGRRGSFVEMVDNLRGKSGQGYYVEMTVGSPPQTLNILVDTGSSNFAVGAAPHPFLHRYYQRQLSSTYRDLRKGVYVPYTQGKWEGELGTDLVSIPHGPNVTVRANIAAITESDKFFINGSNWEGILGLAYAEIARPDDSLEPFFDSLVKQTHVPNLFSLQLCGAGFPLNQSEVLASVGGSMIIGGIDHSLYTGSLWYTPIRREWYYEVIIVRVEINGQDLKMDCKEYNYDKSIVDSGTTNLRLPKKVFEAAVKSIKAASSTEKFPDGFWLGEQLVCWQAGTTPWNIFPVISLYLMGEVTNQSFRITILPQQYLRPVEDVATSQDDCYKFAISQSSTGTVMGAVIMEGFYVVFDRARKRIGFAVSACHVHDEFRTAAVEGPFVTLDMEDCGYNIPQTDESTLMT", "assay": "Test 1: Inhibition of Human BACE-1", "assay_type": "biochemical", "conditions": "recombinant BACE-1, pH 4.5, fluorescence-quenched substrate", "method": "Test 1: Inhibition of Human BACE-1\n(§1) Recombinant BACE-1 (extracellular domain, expressed in baculovirus and purified using standard methods) at 0.1 to 1 nM concentrations is incubated with the test compound at various concentrations for 1 hour at room temperature in 100 mM acetate buffer, pH 4.5, containing 0.1% CHAPS. Activity was measured using a final concentration of 3 μM of the fluorescence-quenched substrate Q-C(HSO3)-Ile-Asp-Leu-Ala-Val-Leu-Asp-HN—CH2—CH2-Mca, where Q=2-nitro-5-amino benzoic acid and Mca=7-methoxy-4-coumarinyl acetic acid. […] Fluorescence increase was followed for 15 min, in 1 minute's intervals. The fluorescence/time slopes were calculated from duplicate wells and from wells without inhibitor and the IC50 values were calculated using a logistic 4-parameter model."}, "human BACE-2": {"biological_target": "human BACE-2 (Homo sapiens (Human), UniProt Q9Y5Z0)", "sequence (Q9Y5Z0 63-473)": "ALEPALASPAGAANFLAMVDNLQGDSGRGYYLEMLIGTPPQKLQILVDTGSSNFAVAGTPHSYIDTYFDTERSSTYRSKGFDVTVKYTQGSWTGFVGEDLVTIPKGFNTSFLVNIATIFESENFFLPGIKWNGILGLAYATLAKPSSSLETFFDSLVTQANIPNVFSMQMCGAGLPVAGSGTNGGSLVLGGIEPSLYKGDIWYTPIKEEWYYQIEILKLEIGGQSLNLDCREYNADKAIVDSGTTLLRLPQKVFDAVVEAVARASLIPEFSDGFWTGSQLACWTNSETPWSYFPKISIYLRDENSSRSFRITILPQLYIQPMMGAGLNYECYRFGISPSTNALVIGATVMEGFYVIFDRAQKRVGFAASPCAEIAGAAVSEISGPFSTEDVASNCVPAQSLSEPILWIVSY", "assay": "Test 2: Inhibition of Human BACE-2", "assay_type": "biochemical", "conditions": "recombinant BACE-2, pH 4.5, fluorescence-quenched substrate", "method": "Test 2: Inhibition of Human BACE-2\nas §1, with “BACE-2” for “BACE-1”"}, "[1]": {"system": "amyloid peptide 1-40 release", "assay": "Test 4: Inhibition of Cellular Release of Amyloid Peptide 1-40", "assay_type": "cell-based", "conditions": "Chinese hamster ovary cells transfected with the human gene for amyloid precursor protein, 24 hours, read-out: Amyloid-β1-40 release IC50", "method": "Chinese hamster ovary cells are transfected with the human gene for amyloid precursor protein. The cells are plated at a density of 8000 cells/well into 96-well microtiter plates and cultivated for 24 hours in DMEM cell culture medium containing 10% FCS. The test compound is added to the cells at various concentrations, and the cells are cultivated for 24 hours in the presence of the test compound. […] The potency of the compound is calculated from the percentage of inhibition of amyloid peptide release as a function of the test compound concentration."}}, "note": "Read-outs that look alike come from different tables or passages of the source.", "data": [{"compound": "NC1=N[C@@](c2cc(Nc3ncccc3OCC(F)F)ccc2F)(C(F)F)COC1", "note": "[Example 20, (R)-5-{5-[3-(2,2-Difluoro-ethoxy)-pyridin-2-ylamino]-2-fluoro-phenyl}-5-difluoromethyl-5,6-dihydro-2H-[1,4]oxazin-3-ylamine]", "values": [{"measurement": "IC50", "setting": "human BACE-1", "result": 1.3, "unit": "µM"}, {"measurement": "IC50", "setting": "human BACE-2", "result": 0.22, "unit": "µM"}, {"measurement": "IC50", "setting": "[1]; Cricetulus griseus", "result": 0.53, "unit": "µM"}]}, {"compound": "NC1=N[C@@](c2cc(Nc3nccn4c(Br)cnc34)ccc2F)(C(F)F)COC1", "note": "[Example 14, [3-((R)-5-Amino-3-difluoromethyl-3,6-dihydro-2H-[1,4]oxazin-3-yl)-4-fluoro-phenyl]-(3-bromo-imidazo[1,2-a]pyrazin-8-yl)-amine]", "values": [{"measurement": "IC50", "setting": "human BACE-1", "result": 0.57, "unit": "µM"}, {"measurement": "IC50", "setting": "human BACE-2", "result": 1.4, "unit": "µM"}, {"measurement": "IC50", "setting": "[1]; Cricetulus griseus", "result": 0.22, "unit": "µM"}]}, {"compound": "NC1=N[C@@](c2cc(Nc3ncccc3OC(F)F)ccc2F)(C(F)F)COC1", "note": "[Example 22, (R)-5-[5-(3-Difluoromethoxy-pyridin-2-ylamino)-2-fluoro-phenyl]-5-difluoromethyl-5,6-dihydro-2H-[1,4]oxazin-3-ylamine]", "values": [{"measurement": "IC50", "setting": "human BACE-1", "result": 0.97, "unit": "µM"}, {"measurement": "IC50", "setting": "human BACE-2", "result": 0.34, "unit": "µM"}, {"measurement": "IC50", "setting": "[1]; Cricetulus griseus", "result": 0.24, "unit": "µM"}]}, {"compound": "NC1=N[C@@](c2cc(Nc3nccn4ccnc34)ccc2F)(C(F)F)COC1", "note": "[Example 13, [3-((R)—S-Amino-3-difluoromethyl-3,6-dihydro-2H-[1,4]oxazin-3-yl)-4-fluoro-phenyl]-imidazo[1,2-a]pyrazin-8-yl-amine]", "values": [{"measurement": "IC50", "setting": "human BACE-1", "result": 1.4, "unit": "µM"}, {"measurement": "IC50", "setting": "human BACE-2", "result": 0.41, "unit": "µM"}, {"measurement": "IC50", "setting": "[1]", "result": 0.26, "unit": "µM"}]}, {"compound": "COc1cccnc1Nc1ccc(F)c([C@]2(C)CO[C@@](C)(C(F)(F)F)C(N)=N2)c1", "note": "[Example 25, (2R,5R)-5-[2-Fluoro-5-(3-methoxy-pyridin-2-ylamino)-phenyl]-2,5-dimethyl-2-trifluoromethyl-5,6-dihydro-2H-[1,4]oxazin-3-ylamine]", "values": [{"measurement": "IC50", "setting": "human BACE-1", "result": 0.21, "unit": "µM"}, {"measurement": "IC50", "setting": "human BACE-2", "result": 0.027, "unit": "µM"}, {"measurement": "IC50", "setting": "[1]; Cricetulus griseus", "result": 0.22, "unit": "µM"}]}, {"compound": "NC1=NC(CF)(c2cc(NCc3ccc(Br)cc3Cl)ccc2F)COC1", "note": "(stereo not drawn) [Example 5, 5-[5-(4-Bromo-2-chloro-benzylamino)-2-fluoro-phenyl]-5-fluoromethyl-5,6-dihydro-2H-[1,4]oxazin-3-ylamine]", "values": [{"measurement": "IC50", "setting": "human BACE-1", "result": 3.6, "unit": "µM"}, {"measurement": "IC50", "setting": "human BACE-2", "result": 5.3, "unit": "µM"}, {"measurement": "IC50", "setting": "[1]; Cricetulus griseus", "result": 1.4, "unit": "µM"}]}, {"compound": "COc1cc(N)cnc1Nc1ccc(F)c([C@]2(C(F)F)COCC(N)=N2)c1", "note": "[Example 27, N*2*-[3-((R)-5-Amino-3-difluoromethyl-3,6-dihydro-2H-[1,4]oxazin-3-yl)-4-fluoro-phenyl]-3-methoxy-pyridine-2,5-diamine]", "values": [{"measurement": "IC50", "setting": "human BACE-1", "result": 3, "unit": "µM"}, {"measurement": "IC50", "setting": "human BACE-2", "result": 0.66, "unit": "µM"}, {"measurement": "IC50", "setting": "[1]; Cricetulus griseus", "result": 2, "unit": "µM"}]}, {"compound": "NC1=N[C@@](c2cc(Nc3ncnc4cc(Cl)cnc34)ccc2F)(C(F)F)COC1", "note": "[Example 7]", "values": [{"measurement": "IC50", "setting": "human BACE-1", "result": 0.036, "unit": "µM"}, {"measurement": "IC50", "setting": "human BACE-2", "result": 0.032, "unit": "µM"}, {"measurement": "IC50", "setting": "[1]; Cricetulus griseus", "result": 0.022, "unit": "µM"}]}, {"compound": "COc1nccnc1Nc1ccc(F)c([C@]2(C(F)F)COCC(N)=N2)c1", "note": "[Example 18, (R)-5-Difluoromethyl-5-[2-fluoro-5-(3-methoxy-pyrazin-2-ylamino)-phenyl]-5,6-dihydro-2H-[1,4]oxazin-3-ylamine]", "values": [{"measurement": "IC50", "setting": "human BACE-1", "result": 2.4, "unit": "µM"}, {"measurement": "IC50", "setting": "human BACE-2", "result": 1.3, "unit": "µM"}, {"measurement": "IC50", "setting": "[1]; Cricetulus griseus", "result": 0.67, "unit": "µM"}]}]}
